ChEMBL document CHEMBL2434853, “3-(3-Butylamino-2-hydroxy-propoxy)-1-hydroxy-xanthen-9-one acts as a topoisomerase IIα catalytic inhibitor with low DNA damage” (Eur J Med Chem, 2013)
pIC50: −log10 of the molar value. Activity calls are given as the source filed them. No cut-off for these calls is given here.

How the values were obtained:
[1] = target: T1, DNA topoisomerase 1 (Homo sapiens) (UniProt P11387); test: Inhibition of recombinant human DNA topoisomerase-1 assessed as relaxation of supercoiled pBR322 DNA at 20 uM after 30 mins by agarose gel electrophoresis relative to control
T1 sequence (whole entry): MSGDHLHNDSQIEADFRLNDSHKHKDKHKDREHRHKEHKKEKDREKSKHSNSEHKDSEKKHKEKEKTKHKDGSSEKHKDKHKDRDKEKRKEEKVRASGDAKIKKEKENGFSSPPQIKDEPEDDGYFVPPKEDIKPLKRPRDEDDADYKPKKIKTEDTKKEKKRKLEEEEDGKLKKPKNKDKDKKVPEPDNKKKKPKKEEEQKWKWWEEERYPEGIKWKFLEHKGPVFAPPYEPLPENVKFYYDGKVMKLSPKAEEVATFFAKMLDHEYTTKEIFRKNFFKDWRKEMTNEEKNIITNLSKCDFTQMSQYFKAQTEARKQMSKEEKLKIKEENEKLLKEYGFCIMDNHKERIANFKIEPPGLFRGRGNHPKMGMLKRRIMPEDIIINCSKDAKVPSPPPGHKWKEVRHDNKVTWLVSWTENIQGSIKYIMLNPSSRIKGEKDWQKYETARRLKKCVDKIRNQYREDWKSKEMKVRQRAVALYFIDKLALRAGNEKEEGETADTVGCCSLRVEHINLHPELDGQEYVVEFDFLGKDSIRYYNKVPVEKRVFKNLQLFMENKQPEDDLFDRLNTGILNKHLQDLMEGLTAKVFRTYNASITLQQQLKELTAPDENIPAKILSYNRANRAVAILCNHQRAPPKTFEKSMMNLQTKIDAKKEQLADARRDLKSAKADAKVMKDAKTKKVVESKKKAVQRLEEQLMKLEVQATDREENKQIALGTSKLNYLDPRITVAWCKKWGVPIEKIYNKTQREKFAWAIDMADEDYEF

[2] = tested on: HCT-15; test: Cytotoxicity against human HCT15 cells after 2 days by CCK-8 assay; type: functional, cell-based; conditions: HCT-15, 48 h
[3] = target: T2, DNA topoisomerase 2-alpha (Homo sapiens, UniProt P11388); test: Inhibition of human DNA topoisomerase-2alpha assessed as relaxation of supercoiled pBR322 DNA at 20 uM after 30 mins by agarose gel electrophoresis relative to control
T2 sequence (P11388 whole entry): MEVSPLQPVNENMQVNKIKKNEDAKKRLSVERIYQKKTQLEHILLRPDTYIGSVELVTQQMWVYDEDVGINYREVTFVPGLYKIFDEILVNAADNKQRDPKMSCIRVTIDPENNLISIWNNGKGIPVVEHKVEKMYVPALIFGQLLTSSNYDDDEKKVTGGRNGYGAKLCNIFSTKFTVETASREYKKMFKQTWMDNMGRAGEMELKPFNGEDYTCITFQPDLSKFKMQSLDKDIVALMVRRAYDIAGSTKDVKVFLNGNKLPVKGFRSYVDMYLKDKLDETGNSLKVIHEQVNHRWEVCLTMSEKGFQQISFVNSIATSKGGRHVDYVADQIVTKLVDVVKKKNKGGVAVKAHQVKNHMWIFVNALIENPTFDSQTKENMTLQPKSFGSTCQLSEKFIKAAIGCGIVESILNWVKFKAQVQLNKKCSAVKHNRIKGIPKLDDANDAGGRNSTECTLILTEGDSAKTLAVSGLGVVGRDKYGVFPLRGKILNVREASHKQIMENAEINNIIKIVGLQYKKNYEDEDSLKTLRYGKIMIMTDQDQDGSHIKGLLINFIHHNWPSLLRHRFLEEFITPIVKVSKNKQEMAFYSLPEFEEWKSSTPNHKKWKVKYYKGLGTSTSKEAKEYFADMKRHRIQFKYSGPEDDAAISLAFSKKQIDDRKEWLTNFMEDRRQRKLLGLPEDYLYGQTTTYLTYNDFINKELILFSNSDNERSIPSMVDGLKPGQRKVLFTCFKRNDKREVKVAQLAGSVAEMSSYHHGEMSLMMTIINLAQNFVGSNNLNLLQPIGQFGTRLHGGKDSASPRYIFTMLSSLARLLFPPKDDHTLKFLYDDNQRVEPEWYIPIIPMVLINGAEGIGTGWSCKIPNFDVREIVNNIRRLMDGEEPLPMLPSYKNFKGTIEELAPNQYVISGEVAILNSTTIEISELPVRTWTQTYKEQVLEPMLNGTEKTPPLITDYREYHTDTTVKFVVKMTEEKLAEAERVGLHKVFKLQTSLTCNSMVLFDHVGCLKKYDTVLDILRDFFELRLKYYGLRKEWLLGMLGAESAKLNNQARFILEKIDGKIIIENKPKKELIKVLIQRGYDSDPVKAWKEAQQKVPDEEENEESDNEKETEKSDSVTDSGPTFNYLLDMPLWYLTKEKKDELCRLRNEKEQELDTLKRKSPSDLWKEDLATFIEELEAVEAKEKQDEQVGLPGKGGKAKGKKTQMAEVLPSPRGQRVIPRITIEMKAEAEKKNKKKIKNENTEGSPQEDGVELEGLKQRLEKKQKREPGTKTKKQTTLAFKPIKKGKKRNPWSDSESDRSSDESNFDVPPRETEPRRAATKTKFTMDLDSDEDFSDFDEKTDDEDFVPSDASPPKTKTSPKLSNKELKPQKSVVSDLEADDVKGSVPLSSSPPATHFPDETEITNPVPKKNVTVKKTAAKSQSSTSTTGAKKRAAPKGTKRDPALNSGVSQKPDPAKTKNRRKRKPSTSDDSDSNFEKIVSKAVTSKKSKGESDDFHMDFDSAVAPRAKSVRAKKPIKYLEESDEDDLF

[4] = target: T2, DNA topoisomerase 2-alpha; test: Inhibition of human DNA topoisomerase-2alpha assessed as relaxation of supercoiled pBR322 DNA at 10 uM after 30 mins by agarose gel electrophoresis relative to control
[5] = tested on: T47D; test: Cytotoxicity against human T47D cells after 2 days by CCK-8 assay; type: functional, cell-based; conditions: 48 h
[6] = tested on: HEK293; test: Cytotoxicity against HEK293 cells after 2 days by CCK-8 assay; type: functional, cell-based; conditions: Homo sapiens, HEK293, 48 h
[7] = target: T2, DNA topoisomerase 2-alpha; test: Inhibition of human DNA topoisomerase-2alpha assessed as relaxation of supercoiled pBR322 DNA at 100 uM after 30 mins by agarose gel electrophoresis relative to control
[8] = tested on: DU-145; test: Cytotoxicity against human DU145 cells after 2 days by CCK-8 assay; type: functional, cell-based; conditions: DU-145, 48 h
[9] = target: T2, DNA topoisomerase 2-alpha; test: Inhibition of human DNA topoisomerase-2alpha assessed as relaxation of supercoiled pBR322 DNA after 30 mins by agarose gel electrophoresis
[10] = tested on: Escherichia coli; test: Induction of Escherichia coli pBR322 DNA intercalating activity assessed as retardation of DNA at 1 to 2.5 uM after 20 mins by agarose gel electrophoresis
[11] = Induction of pHOT1 DNA (unknown origin) intercalating activity assessed as blockade of DNA unwinding at 50 to 500 uM after 30 mins by agarose gel electrophoresis in presence of DNA topoisomerase-1
[12] = target: T2, DNA topoisomerase 2-alpha; test: Inhibition of human DNA topoisomerase-2alpha ATPase activity using supercoiled pUC18 DNA as substrate assessed as inorganic phosphate release at 400 uM incubated for 30 mins prior to ATP addition measured after 30 mins by malachite green phosphate assay relative to control
[13] = target: T2, DNA topoisomerase 2-alpha; test: Inhibition of human DNA topoisomerase-2alpha ATPase activity using supercoiled pUC18 DNA as substrate assessed as inorganic phosphate release at 300 uM incubated for 30 mins prior to ATP addition measured after 30 mins by malachite green phosphate assay relative to control
[14] = target: T2, DNA topoisomerase 2-alpha; test: Inhibition of human DNA topoisomerase-2alpha ATPase activity using supercoiled pUC18 DNA as substrate assessed as inorganic phosphate release at 200 uM incubated for 30 mins prior to ATP addition measured after 30 mins by malachite green phosphate assay relative to control
[15] = target: T2, DNA topoisomerase 2-alpha; conditions: 10 uM
Description: Competitive inhibition of recombinant human DNA topoisomerase-2alpha assessed as relaxation of supercoiled pBR322 DNA at 10 uM after 30 mins by agarose gel electrophoresis in presence of 1.5 mM ATP relative to control

[16] = target: T2, DNA topoisomerase 2-alpha; conditions: 50 uM
Description: Competitive inhibition of recombinant human DNA topoisomerase-2alpha assessed as relaxation of supercoiled pBR322 DNA at 50 uM after 30 mins by agarose gel electrophoresis in presence of 1.5 mM ATP relative to control

[17] = tested on: HCT-15; test: Potency index, ratio of etoposide IC50 to compound IC50 for human HCT15 cells; type: functional
[18] = Induction of pHOT1 DNA (unknown origin) intercalating activity assessed as blockade of DNA unwinding after 30 mins by agarose gel electrophoresis in presence of DNA topoisomerase-1
[19] = target: T2, DNA topoisomerase 2-alpha; conditions: 100 uM
Description: Competitive inhibition of recombinant human DNA topoisomerase-2alpha assessed as relaxation of supercoiled pBR322 DNA at 100 uM after 30 mins by agarose gel electrophoresis in presence of 1.5 mM ATP relative to control

[20] = target: T2, DNA topoisomerase 2-alpha; conditions: 5 uM
Description: Competitive inhibition of recombinant human DNA topoisomerase-2alpha assessed as relaxation of supercoiled pBR322 DNA at 5 uM after 30 mins by agarose gel electrophoresis in presence of 1.5 mM ATP relative to control

[21] = target: T2, DNA topoisomerase 2-alpha; conditions: 50 uM; remark: listed apart in the source
Description: Competitive inhibition of recombinant human DNA topoisomerase-2alpha assessed as relaxation of supercoiled pBR322 DNA at 50 uM after 30 mins by agarose gel electrophoresis in presence of 1 mM ATP relative to control

[22] = target: T2, DNA topoisomerase 2-alpha; conditions: 10 uM; remark: listed apart in the source
Description: Competitive inhibition of recombinant human DNA topoisomerase-2alpha assessed as relaxation of supercoiled pBR322 DNA at 10 uM after 30 mins by agarose gel electrophoresis in presence of 1 mM ATP relative to control

[23] = target: T2, DNA topoisomerase 2-alpha; conditions: 100 uM; remark: listed apart in the source
Description: Competitive inhibition of recombinant human DNA topoisomerase-2alpha assessed as relaxation of supercoiled pBR322 DNA at 100 uM after 30 mins by agarose gel electrophoresis in presence of 1 mM ATP relative to control

[24] = tested on: Escherichia coli; test: Induction of Escherichia coli pBR322 DNA intercalating activity assessed as retardation of DNA at 300 uM after 20 mins by agarose gel electrophoresis
[25] = target: T2, DNA topoisomerase 2-alpha; conditions: 20 uM
Description: Competitive inhibition of recombinant human DNA topoisomerase-2alpha assessed as relaxation of supercoiled pBR322 DNA at 20 uM after 30 mins by agarose gel electrophoresis in presence of 1.5 mM ATP relative to control

[26] = tested on: HCT-15; test: Induction of DNA damage in human HCT15 cells at 10 uM after 24 hrs by comet assay; type: functional, cell-based
[27] = target: T2, DNA topoisomerase 2-alpha; conditions: 2 uM
Description: Competitive inhibition of recombinant human DNA topoisomerase-2alpha assessed as relaxation of supercoiled pBR322 DNA at 2 uM after 30 mins by agarose gel electrophoresis in presence of 1.5 mM ATP relative to control

[28] = target: T2, DNA topoisomerase 2-alpha; conditions: 5 uM; remark: listed apart in the source
Description: Competitive inhibition of recombinant human DNA topoisomerase-2alpha assessed as relaxation of supercoiled pBR322 DNA at 5 uM after 30 mins by agarose gel electrophoresis in presence of 1 mM ATP relative to control

[29] = target: T2, DNA topoisomerase 2-alpha; conditions: 20 uM; remark: listed apart in the source
Description: Competitive inhibition of recombinant human DNA topoisomerase-2alpha assessed as relaxation of supercoiled pBR322 DNA at 20 uM after 30 mins by agarose gel electrophoresis in presence of 1 mM ATP relative to control

[30] = target: T2, DNA topoisomerase 2-alpha; conditions: 2 uM; remark: listed apart in the source
Description: Competitive inhibition of recombinant human DNA topoisomerase-2alpha assessed as relaxation of supercoiled pBR322 DNA at 2 uM after 30 mins by agarose gel electrophoresis in presence of 1 mM ATP relative to control

Compound | inhibition [1] [%] | pIC50 [2] | inhibition [3] [%] | inhibition [4] [%] | pIC50 [5] | pIC50 [6] | inhibition [7] [%] | pIC50 [8] | pIC50 [9] | further results
CCCCCCNCC(O)COc1cc(O)c2c(=O)c3cccc(OC)c3oc2c1 (configuration not stated) | 0 | 5.20 | 61.2 | 0 | 5.21 | 5.34 | 100 | 5.75 | 4.86 | –
CC[n+]1c(-c2ccccc2)c2cc(N)ccc2c2ccc(N)cc21 | – | – | – | – | – | – | – | – | – | Activity [10]: Active
COc1cc(NS(C)(=O)=O)ccc1Nc1c2ccccc2nc2ccccc12 | – | – | – | – | – | – | – | – | – | Activity [11]: Active
CO[C@@H]1[C@@H](OC(N)=O)[C@@H](O)[C@H](Oc2ccc3c(O)c(NC(=O)c4ccc(O)c(CC=C(C)C)c4)c(=O)oc3c2C)OC1(C)C | – | – | – | – | – | – | – | – | – | inhibition [12]: 76.8%; inhibition [13]: 63.6%; inhibition [14]: 14.4%
CCCNCC(O)COc1cc(O)c2c(=O)c3cccc(OC)c3oc2c1 (configuration not stated) | 0 | 5.27 | 64.4 | 6 | 5.48 | 5.44 | 100 | 5.83 | 4.92 | –
CCCCCCNCC(O)COc1cc(O)c2c(=O)c3ccccc3oc2c1 (configuration not stated) | 0 | 5.82 | 43.6 | 0 | 5.89 | 5.84 | 80.7 | 5.94 | 4.71 | –
CC[C@@]1(O)C(=O)OCc2c1cc1n(c2=O)Cc2cc3ccccc3nc2-1 [CAMPTOTHECIN] | – | 6.38 | – | – | 6.52 | 6.11 | – | 6.41 | – | –
CCCCCNCC(O)COc1cc(O)c2c(=O)c3ccccc3oc2c1 (configuration not stated) | 3 | 6.15 | 52.1 | 0.7 | 5.79 | 5.58 | 92.9 | 5.95 | 4.79 | –
CCCCNCC(O)COc1cc(O)c2c(=O)c3cccc(OC)c3oc2c1 (configuration not stated) | 0 | 5.04 | 68.1 | 24.2 | 5.53 | 5.76 | 100 | 5.48 | 4.95 | –
CCCCNCC(O)COc1cc(O)c2c(=O)c3ccccc3oc2c1 (configuration not stated) | 0 | 6.11 | 67.7 | 64 | 6.03 | 5.46 | 95.1 | 5.70 | 5.05 | inhibition [12]: 33.7%; inhibition [15]: 21%; inhibition [16]: 64.9%; Ratio IC50 [17]: 6.6; Activity [18]: Dose-dependent effect; inhibition [19]: 88.7%; inhibition [20]: 17.5%; inhibition [13]: 23.9%; inhibition [21]: 87.7%; inhibition [22]: 60.4%; inhibition [23]: 88.7%; Activity [24]: Active; inhibition [25]: 37.7%; Activity [26]: inactive; inhibition [27]: 7.1%; inhibition [14]: 15.1%; inhibition [28]: 48.5%; inhibition [29]: 87.9%; inhibition [30]: 4%
COc1cc([C@@H]2c3cc4c(cc3[C@@H](O[C@@H]3O[C@@H]5CO[C@@H](C)O[C@H]5[C@H](O)[C@H]3O)[C@H]3COC(=O)[C@H]23)OCO4)cc(OC)c1O [ETOPOSIDE] | – | 5.29 | – | 18 | 5.47 | 6.14 | – | 5.03 | – | inhibition [19]: 82.6%; inhibition [23]: 87.6%; Activity [26]: Active
COc1cccc2c1C(=O)c1c(O)c3c(c(O)c1C2=O)C[C@@](O)(C(=O)CO)C[C@@H]3O[C@H]1C[C@H](N)[C@H](O)[C@H](C)O1 [DOXORUBICIN] | – | 5.86 | – | – | 6.39 | 5.51 | – | 5.57 | – | –
CCCNCC(O)COc1cc(O)c2c(=O)c3ccccc3oc2c1 (configuration not stated) | 0 | 5.26 | 60.2 | 50.2 | 5.19 | 5.37 | 93.8 | 5.70 | 4.98 | –
CCCCCNCC(O)COc1cc(O)c2c(=O)c3cccc(OC)c3oc2c1 (configuration not stated) | 0 | 6.00 | 62.6 | 2 | 5.01 | 5.14 | 100 | 6.04 | 4.86 | –
